Laboratory results taken from patent US20150285760A1, “DIELECTROPHORETIC DEVICE FOR ANALYSIS OF CELL MECHANICS” (DREXEL UNIVERSITY, priority 2014, published 2015).
“Also recorded” adds a separate entry of the source.

What was measured:
Format in all cases: cell-based
[1] = test system: porcine aortic endothelial cells; experiment: Atomic force microscopy cell stiffness (elastic modulus), cytochalasin D treatment; details: 200 nM cytochalasin D for 15 minutes
Method: (§1) Cells were released from tissue culture dishes with trypsin, seeded onto micropatterned PA gels, and 30 minutes was allowed for the cells to attach to the microspots 8. The medium was replaced and the PA gel was washed to remove unattached cells. Cells were then incubated on the micropatterned PA gels for 16-24 hours prior to taking measurements. Before the measurements, the cells were transferred into serum-free CO2-independent medium (Invitrogen™). In some samples, the actin cytoskeleton was disrupted with 200 nM cytochalasin D (Sigma Aldrich) for 15 minutes at room temperature in serum-free CO2-independent medium.
Atomic force microscopy (AFM, Bioscope DAFM-2X, Veeco) was used to validate DEP device 100 cell stiffness measurements (elastic modulus). A silicon nitride cantilever with 1 μm spherical tip (196 μm long, 23 μm wide, 600 nm thick, spring constant 0.06 N/m, Novascan) was used to indent each measured cell at three distinct locations. […] At least six cells for each cell condition or cell type were measured.
(§2) Adhered porcine aortic endothelial cells were treated with cytochalasin D to determine the stiffness changes induced by cytochalasin D using the DEP device 100 of the present invention. […] The calculated cell elastic modulus in cytochalasin treated cells was about 0.3 kPa, while the cell elastic modulus in the untreated cells was calculated to be about […] (FIG. 10C).

[2] = test system: porcine aortic endothelial cells; experiment: DEP device cell deformation (centroid movement) of adhered cells
Method: as §1
A micropatterned single cell array adhered to a PA gel was mounted on an inverted Olympus IX81 fluorescent microscope. The quadrupole DEP device 100 was attached to a micromanipulator (Eppendorf), and the electrodes were centered and lowered over a single adhered cell within approximately ˜10 μm of the cell. Electrical potential was applied using a function generator (BK Precision 3011B) set to 20 Vpp, 1 MHz. The positive function generator lead was diverted into two separate lines, each going to a resistance decade box, before connecting to diagonally opposing device electrodes as in FIG. 2D. With no extra resistance applied, both electrodes received the same voltage. Increasing resistance to one electrode decreased voltage to that electrode and therefore changed the magnitude of the DEP force as well as the force direction. […]
Bright-field images were taken every 0.5 seconds throughout each measurement. […] Cell deformation was quantified by measuring the distance between cell body centroid and the lower left corner of the cropped image. […]
as §2

Endothelial cells = experiment: Atomic force microscopy cell stiffness (elastic modulus) after TNF-α treatment; details: cells on 55 kPa micropatterned PA gels
Description: Atomic force microscopy (AFM, Bioscope DAFM-2X, Veeco) was used to validate DEP device 100 cell stiffness measurements (elastic modulus). A silicon nitride cantilever with 1 μm spherical tip (196 μm long, 23 μm wide, 600 nm thick, spring constant 0.06 N/m, Novascan) was used to indent each measured cell at three distinct locations. Elastic modulus was estimated by fitting the first 200 nm of the indentation curves to a Hertz model (Solon et al., “Fibroblast adaptation and stiffness matching to soft elastic substrates,” Biophys. J., vol. […], pages 4453-4461, 2007). Three measurements per cell were averaged and defined as the cell stiffness. At least six cells for each cell condition or cell type were measured.
Endothelial cells were cultured for 24 hours on micropatterned PA gels with stiffness of 55 kPa using 25 μm fibronectin circles as the microspots 8 to allow focal adhesion formation. The micropatterned PA gel was used in a DEP device 100 of the present invention provided with a microfluidic chamber 14. The quadrupole electrodes 4 were lowered with a single cell aligned within the cage of each quadrupole electrode 4. TNF-α was introduced to the microfluidic chamber 14 to expose the cells thereto. Cell stiffness or cell elastic modulus of the endothelial cell after TNF-α treatment was measured using AFM.

Compound | calculated cell elastic modulus (AFM) [1] | cell stiffness / cell modulus (AFM), change compared with untreated cells [1] | cell centroid movement / deformation under dielectrophoretic force ([2]; 200 nM cytochalasin D for 15 minutes, compared with untreated adhered cells under the same DEP force) | cell centroid restoration to the center position ([2]; 200 nM cytochalasin D for 15 minutes, compared with untreated cells) | cell stiffness (DEP device) ([2]; cytochalasin D treatment, three different DEP forces) | endothelial cell stiffness / elastic modulus (AFM), change compared with untreated cells (Endothelial cells)
C=C1[C@@H](C)[C@H]2[C@H](Cc3ccccc3)NC(=O)[C@]23[C@H](OC(C)=O)/C=C/[C@@](C)(O)C(=O)[C@@H](C)C/C=C/[C@H]3[C@@H]1O [cytochalasin D] | about 0.3 kPa | decreased the stiffness; also recorded: lower | Untreated endothelial cells showed centroid deformations consistently smaller than treated endothelia cells; also recorded: increased | slower | decreases cell stiffness | 
TNF-α |  |  |  |  |  | Increased; also recorded: higher
